One assay has as its target T1, human ENPP1 (Homo sapiens, UniProt P22413).
T1 construct: made in house
T1 sequence (P22413 1-925): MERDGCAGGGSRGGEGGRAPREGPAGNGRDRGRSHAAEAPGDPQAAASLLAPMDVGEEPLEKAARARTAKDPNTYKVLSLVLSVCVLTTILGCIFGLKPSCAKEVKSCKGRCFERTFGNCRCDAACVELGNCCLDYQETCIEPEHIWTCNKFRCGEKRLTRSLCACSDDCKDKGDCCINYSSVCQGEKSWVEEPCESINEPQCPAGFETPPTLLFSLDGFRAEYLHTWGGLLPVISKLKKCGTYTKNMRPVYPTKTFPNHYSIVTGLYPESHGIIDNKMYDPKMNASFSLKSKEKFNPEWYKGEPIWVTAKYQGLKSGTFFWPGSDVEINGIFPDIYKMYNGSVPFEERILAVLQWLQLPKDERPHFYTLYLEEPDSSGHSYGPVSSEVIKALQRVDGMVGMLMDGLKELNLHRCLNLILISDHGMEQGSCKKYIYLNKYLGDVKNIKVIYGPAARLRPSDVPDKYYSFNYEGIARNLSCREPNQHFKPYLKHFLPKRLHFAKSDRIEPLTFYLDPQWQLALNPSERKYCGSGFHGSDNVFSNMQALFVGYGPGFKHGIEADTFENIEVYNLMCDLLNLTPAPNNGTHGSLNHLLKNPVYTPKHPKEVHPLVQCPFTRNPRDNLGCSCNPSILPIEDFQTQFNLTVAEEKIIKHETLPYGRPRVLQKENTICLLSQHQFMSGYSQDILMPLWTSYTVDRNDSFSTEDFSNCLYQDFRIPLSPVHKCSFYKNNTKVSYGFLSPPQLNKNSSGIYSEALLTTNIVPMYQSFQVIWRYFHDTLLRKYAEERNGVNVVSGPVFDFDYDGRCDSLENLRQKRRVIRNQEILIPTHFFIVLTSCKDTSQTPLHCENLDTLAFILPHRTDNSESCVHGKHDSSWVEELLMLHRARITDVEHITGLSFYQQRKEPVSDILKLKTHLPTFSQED
Put plainly: ENPP1 assay with ATP substrate (Transcreener AMP2/GMP2 TR-FRET). As to conditions: 1 hour at room temperature. The format is biochemical. An outline of the steps: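 Reaction ran 1 h at room temperature in pH 7.5 Tris with MgCl2, TCEP, Tween 20 and 1% DMSO. ATP was added as a 300 nM stock and enzyme as an 8.5 μM stock. After EDTA stop, AMP was read by TR-FRET tracer displacement. Percent inhibition used enzyme/no-enzyme controls; IC50 was fitted with a variable slope.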

The target of another assay is T2, ENPP3 (Homo sapiens, UniProt O14638).
T2 sequence (O14638 1-875): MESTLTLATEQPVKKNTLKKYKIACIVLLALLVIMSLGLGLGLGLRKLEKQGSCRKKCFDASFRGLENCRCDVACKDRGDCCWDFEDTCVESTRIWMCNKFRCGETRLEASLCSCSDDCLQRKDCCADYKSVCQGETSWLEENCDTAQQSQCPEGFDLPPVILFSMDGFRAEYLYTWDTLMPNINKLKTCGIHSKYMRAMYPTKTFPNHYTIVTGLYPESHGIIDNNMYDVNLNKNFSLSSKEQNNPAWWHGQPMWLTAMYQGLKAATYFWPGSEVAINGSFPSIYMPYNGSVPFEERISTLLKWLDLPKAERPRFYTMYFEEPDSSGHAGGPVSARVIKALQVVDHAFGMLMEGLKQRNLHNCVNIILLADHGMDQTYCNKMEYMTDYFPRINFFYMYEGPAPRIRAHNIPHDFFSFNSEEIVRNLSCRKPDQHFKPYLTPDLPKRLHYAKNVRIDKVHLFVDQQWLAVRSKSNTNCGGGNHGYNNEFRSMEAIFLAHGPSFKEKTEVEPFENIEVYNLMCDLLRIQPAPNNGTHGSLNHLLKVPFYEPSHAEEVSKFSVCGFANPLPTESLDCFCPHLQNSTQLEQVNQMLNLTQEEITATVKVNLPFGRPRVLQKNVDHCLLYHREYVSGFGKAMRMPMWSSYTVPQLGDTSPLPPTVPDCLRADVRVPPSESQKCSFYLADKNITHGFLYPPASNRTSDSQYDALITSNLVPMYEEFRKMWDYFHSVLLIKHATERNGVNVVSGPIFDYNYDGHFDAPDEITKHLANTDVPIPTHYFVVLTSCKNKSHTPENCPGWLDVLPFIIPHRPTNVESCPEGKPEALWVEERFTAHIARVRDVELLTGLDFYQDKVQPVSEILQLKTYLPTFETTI
Put plainly: ENPP3 Km ATP assay. The format is biochemical. The following applies: ATP at Km.

With `Cc1csc2c(N3CCC(NCc4ccncc4)CC3)ncnc12` [Example 3.2, 1-(7-Methylthieno[3,2-d]pyrimidin-4-yl)-N-(pyridin-4-ylmethyl)piperidin-4-amine], the IC50 at human ENPP1 is 1 to 20 µM; against ENPP3, > 20 µM.
The matching figures for `Cc1nc(N2CCC(NCCCc3ccncc3)CC2)c2cnn(C)c2n1` [Example 2.51, 1-(1,6-Dimethyl-1H-pyrazolo[3,4-d]pyrimidin-4-yl)-N-(3-(pyridin-4-yl)propyl)piperidin-4-amine]: > 20 µM and > 20 µM.
For `Cc1csc2c(N3CCC(NCCCc4ccncc4)CC3)nc(-c3ccccc3)nc12` [Example 3.61, 1-(7-Methyl-2-phenylthieno[3,2-d]pyrimidin-4-yl)-N-(3-(pyridin-4-yl)propyl)piperidin-4-amine], in that order: > 20 µM and > 20 µM.
The matching figures for `Fc1ccc(CNc2nc(-c3ccccn3)nc3scc(-c4ccccc4)c23)cc1` [Example 1.4, N-(4-Fluorobenzyl)-5-phenyl-2-(pyridin-2-yl)thieno[2,3-d]pyrimidin-4-amine]: > 20 µM and > 20 µM.
Regarding `Cn1ncc2c(NCc3ccc(S(N)(=O)=O)c(C(F)(F)F)c3)ccnc21` [Example 2.62, 4-(((1-Methyl-1H-pyrazolo[3,4-b]pyridin-4-yl)amino)methyl)-2-(trifluoromethyl)-benzenesulfonamide], the values for the IC50 at human ENPP1 and against ENPP3 were < 0.1 µM and 0.1 to 1 µM, respectively.
The matching figures for `CN1CCN(c2nc(NCc3ccc(S(N)(=O)=O)cc3)c3c(-c4ccccc4)csc3n2)CC1` [Example 1.25, 4-(((2-(4-Methylpiperazin-1-yl)-5-phenylthieno[2,3-d]pyrimidin-4-yl)amino)methyl)-benzenesulfonamide]: < 0.1 µM and < 0.1 µM.
For `CCn1ncc2c(NCc3ccc(S(N)(=O)=O)cc3)nc(OCCC(C)C)nc21` [Example 2.102, 4-((1-Ethyl-6-(3-methylbutoxy)-1H-pyrazolo[3,4-d]pyrimidin-4-yl)aminomethyl)-benzenesulfonamide], in that order: < 0.1 µM and 0.1 to 1 µM.
The matching figures for `Cn1ncc2c(NCc3ccc(S(N)(=O)=O)cc3)cc(N3CCCC3)nc21` [Example 2.77, 4-(((1-Methyl-6-(pyrrolidin-1-yl)-1H-pyrazolo[3,4-b]pyridin-4-yl)amino)methyl)-benzenesulfonamide]: 1 to 20 µM and 0.1 to 1 µM.
Turning to `Cc1cc(S(N)(=O)=O)ccc1CNc1ccnc2c1cnn2C` [Example 2.69, 3-Methyl-4-(((1-methyl-1H-pyrazolo[3,4-b]pyridin-4-yl)amino)methyl)-benzenesulfonamide], the IC50 against human ENPP1 is 0.1 to 1 µM; at ENPP3, 1 to 20 µM.
In the case of `Cc1nc(NCc2ccc(S(N)(=O)=O)s2)c2c(-c3ccccc3)csc2n1` [Example 1.45, 5-(((2-Methyl-5-phenylthieno[2,3-d]pyrimidin-4-yl)amino)methyl)thiophene-2-sulfonamide], the IC50 on human ENPP1 and on ENPP3 was > 20 µM each time.
On to `CCc1nc(NCc2ccc(S(N)(=O)=O)cc2)c2cnn(C)c2n1` [Example 2.40, 4-(((6-Ethyl-1-methyl-1H-pyrazolo[3,4-d]pyrimidin-4-yl)amino)methyl)benzenesulfonamide], for which the IC50 at human ENPP1 was < 0.1 µM; against ENPP3 it was 0.1 to 1 µM.
The matching figures for `NS(=O)(=O)c1ccc(CNc2nc(N3CCCCC3)nc3scc(-c4ccccc4)c23)cc1` [Example 1.39, 4-(((5-Phenyl-2-(piperidin-1-yl)thieno[2,3-d]pyrimidin-4-yl)amino)methyl)-benzenesulfonamide]: 0.1 to 1 µM and 0.1 to 1 µM.
The matching figures for `NS(=O)(=O)c1ccc(CNc2ncnc3scc(C4=CCCCC4)c23)cc1` [Example 1.69, 4-((5-(1-Cyclohexenyl)thieno[2,3-d]pyrimidin-4-yl)aminomethyl)benzenesulfonamide]: > 20 µM and 0.1 to 1 µM.
The matching figures for `Cc1cc(S(N)(=O)=O)ccc1CNc1ncnc2c1cnn2C` [Example 2.2, 3-Methyl-4-(((1-methyl-1H-pyrazolo[3,4-d]pyrimidin-4-yl)amino)methyl)-benzenesulfonamide]: 0.1 to 1 µM and 1 to 20 µM.
For `Cc1csc2c(N3CCC(NCCCc4ccccc4)CC3)ncnc12` [Example 3.27, 1-(7-Methylthieno[3,2-d]pyrimidin-4-yl)-N-(3-phenylpropyl)piperidin-4-amine], the IC50 is 0.1 to 1 µM on human ENPP1 and > 20 µM against ENPP3.
For `NS(=O)(=O)c1ccc(CNc2nc(-c3ccccn3)nc3scc(-c4ccccc4)c23)s1` [Example 1.31, 5-(((5-Phenyl-2-(pyridin-2-yl)thieno[2,3-d]pyrimidin-4-yl)amino)methyl)thiophene-2-sulfonamide], in that order: < 0.1 µM and 0.1 to 1 µM.
In the case of `NS(=O)(=O)c1ccc(CNc2ncnc3scc(-c4ccccc4)c23)s1` [Example 1.28, 5-(((5-Phenylthieno[2,3-d]pyrimidin-4-yl)amino)methyl)thiophene-2-sulfonamide], the IC50 against human ENPP1 is 1 to 20 µM; against ENPP3, > 20 µM.
As for `COc1cc(S(N)(=O)=O)ccc1CNc1ncnc2c1cnn2C` [Example 2.3, 3-Methoxy-4-(((1-methyl-1H-pyrazolo[3,4-d]pyrimidin-4-yl)amino)methyl)-benzenesulfonamide], the IC50 is 0.1 to 1 µM at human ENPP1 and 1 to 20 µM at ENPP3.
Consider `Cn1ncc2c(OCc3ccc(S(N)(=O)=O)cc3)ncnc21` [Example 2.137, 4-((1-Methyl-1H-pyrazolo[3,4-d]pyrimidin-4-yl)oxymethyl)benzenesulfonamide], for which the IC50 at human ENPP1 and against ENPP3 was 1 to 20 µM throughout.
Take `NS(=O)(=O)N1CCC(CNc2ncnc3scc(-c4ccccc4)c23)CC1` [Example 1.66, 4-(5-Phenylthieno[2,3-d]pyrimidin-4-yl)aminomethyl-1-piperidinesulfonamide]: the values for the IC50 against human ENPP1 and on ENPP3 were 0.1 to 1 µM and 1 to 20 µM, respectively.
For `NS(=O)(=O)c1ccc(CNc2nc(Cl)nc3c2cnn3C2CC2)cc1` [Example 2.84, 4-((6-Chloro-1-cyclopropyl-1H-pyrazolo[3,4-d]pyrimidin-4-yl)aminomethyl)-benzenesulfonamide], in that order: < 0.1 µM and 1 to 20 µM.
For `Cc1csc2c(N3CCC(NCCc4ccncc4)CC3)ncnc12` [Example 3.25, 1-(7-Methylthieno[3,2-d]pyrimidin-4-yl)-N-(2-(pyridin-4-yl)ethyl)piperidin-4-amine], in that order: 0.1 to 1 µM and > 20 µM.
The matching figures for `Cc1csc2c(N3CCC(NC(=O)CCc4ccnc(Br)c4)CC3)ncnc12` [Example 3.9]: 1 to 20 µM and > 20 µM.
On to `NS(=O)(=O)c1ccc(CNc2nc(NCCCO)nc3scc(-c4ccccc4)c23)cc1` [Example 1.51, 4-((2-(3-Hydroxypropyl)amino-5-phenylthieno[2,3-d]pyrimidin-4-yl)aminomethyl)-benzenesulfonamide], for which the IC50 against human ENPP1 and at ENPP3 was < 0.1 µM in each case.

Source of the values: patent publication US12643910B2, “Substituted pyrazolo[3,4-b]pyridines as ectonucleotide pyrophosphatase/phosphodiesterase 1 (ENPP1) modulators” (SANFORD BURNHAM PREBYS MEDICAL DISCOVERY INSTITUTE, priority 2019, dated 2026).
